# Article PMC4904262 (ACS Medicinal Chemistry Letters, 2016)
# What was measured:
# TSSK1 = TSSK1 (Homo sapiens, UniProt Q9BXA7); conditions: 1 µM, ATP at Km
# CAMKI = CAMKI (Homo sapiens, UniProt Q14012); conditions: 1 µM, ATP at Km
# NEK11 = NEK11 (Homo sapiens, UniProt Q8NG66); conditions: 1 µM, ATP at Km
# NEK2 = NEK2 (Homo sapiens, UniProt P51955); conditions: 1 µM, ATP at Km
# CKIT = CKIT (Homo sapiens, UniProt P10721); conditions: 1 µM, ATP at Km
# EPHA4 = EPHA4 (Homo sapiens, UniProt P54764); conditions: 1 µM, ATP at Km
# […] = […] (Homo sapiens, UniProt P16234); conditions: 1 µM, ATP at Km
# DAPK2 = DAPK2 (Homo sapiens, UniProt Q9UIK4); conditions: 1 µM, ATP at Km
# RSE = RSE (Homo sapiens, UniProt Q06418); conditions: 1 µM, ATP at Km
# SNK = SNK (Homo sapiens, UniProt Q9NYY3); conditions: 1 µM, ATP at Km
# ULK3 = ULK3 (Homo sapiens, UniProt Q6PHR2); conditions: 1 µM, ATP at Km
# MKK6 = MKK6 (Homo sapiens, UniProt P52564); conditions: 1 µM, ATP at Km
# LCK = LCK (Homo sapiens, UniProt P06239); conditions: LCK (first listing, page 9); 1 µM; ATP at Km
# LYN = LYN (Homo sapiens, UniProt P07948); conditions: 1 µM, ATP at Km
# FER = FER (Homo sapiens, UniProt P16591); conditions: 1 µM, ATP at Km
# ARG = ARG (Homo sapiens, UniProt P42684); conditions: 1 µM, ATP at Km
# PKCEPSILON = PKCEPSILON (Homo sapiens, UniProt Q02156); conditions: 1 µM, ATP at Km
# EPHA8 = EPHA8 (Homo sapiens, UniProt P29322); conditions: 1 µM, ATP at Km
# CHK1 = CHK1 (Homo sapiens, UniProt O14757); conditions: 1 µM, ATP at Km
# HIPK2 = HIPK2 (Homo sapiens, UniProt Q9H2X6); conditions: 1 µM, ATP at Km
# JAK2 = JAK2 (Homo sapiens, UniProt O60674); conditions: 1 µM, ATP at Km
# AXL = AXL (Homo sapiens, UniProt P30530); conditions: 1 µM, ATP at Km
# EPHA2 = EPHA2 (Homo sapiens, UniProt P29317); conditions: 1 µM, ATP at Km
# BLK = BLK (Homo sapiens, UniProt P51451); conditions: 1 µM, ATP at Km
# AURKA = AURKA (Homo sapiens, UniProt O14965); conditions: 1 µM, ATP at Km
# PRKAA1 = PRKAA1 (Homo sapiens, UniProt Q13131); conditions: 1 µM, ATP at Km
# CK1DELTA = CK1DELTA (Homo sapiens, UniProt P48730); conditions: 1 µM, ATP at Km
# LOK = LOK (Homo sapiens, UniProt O94804); conditions: 1 µM, ATP at Km
# PKCZETA = PKCZETA (Homo sapiens, UniProt Q05513); conditions: 1 µM, ATP at Km
# MLK1 = MLK1 (Homo sapiens, UniProt P80192); conditions: 1 µM, ATP at Km
# AURKB = AURKB (Homo sapiens, UniProt Q96GD4); conditions: 1 µM, ATP at Km
# MER = MER (Homo sapiens, UniProt Q12866); conditions: 1 µM, ATP at Km
# FYN = FYN (Homo sapiens, UniProt P06241); conditions: 1 µM, ATP at Km
# RSK4 = RSK4 (Homo sapiens, UniProt Q9UK32); conditions: 1 µM, ATP at Km
# CDK1/CYCLINB = CDK1/CYCLINB (Homo sapiens, UniProt P06493); conditions: 1 µM, ATP at Km
# FLT4 = FLT4 (Homo sapiens, UniProt P35916); experiment: biochemical; conditions: read-out: FLT4 inhibition
# CAMKIIBETA = CAMKIIBETA (Homo sapiens, UniProt Q13554); conditions: 1 µM, ATP at Km
# IR = IR (Homo sapiens, UniProt P06213); conditions: 1 µM, ATP at Km
# STK33 = STK33 (Homo sapiens, UniProt Q9BYT3); conditions: 1 µM, ATP at Km
# JAK3 = JAK3 (Homo sapiens, UniProt P52333); conditions: 1 µM, ATP at Km
# CRAF = CRAF (Homo sapiens, UniProt P04049); conditions: 1 µM, ATP at Km
# ZAP-70 = ZAP-70 (Homo sapiens, UniProt P43403); conditions: 1 µM, ATP at Km
# TRKB = TRKB (Homo sapiens, UniProt Q16620); conditions: 1 µM, ATP at Km
# RSK1 = RSK1 (Homo sapiens, UniProt Q15418); conditions: 1 µM, ATP at Km
# HIPK1 = HIPK1 (Homo sapiens, UniProt Q86Z02); conditions: 1 µM, ATP at Km
# TRKB, sequence (Q16620 32-822): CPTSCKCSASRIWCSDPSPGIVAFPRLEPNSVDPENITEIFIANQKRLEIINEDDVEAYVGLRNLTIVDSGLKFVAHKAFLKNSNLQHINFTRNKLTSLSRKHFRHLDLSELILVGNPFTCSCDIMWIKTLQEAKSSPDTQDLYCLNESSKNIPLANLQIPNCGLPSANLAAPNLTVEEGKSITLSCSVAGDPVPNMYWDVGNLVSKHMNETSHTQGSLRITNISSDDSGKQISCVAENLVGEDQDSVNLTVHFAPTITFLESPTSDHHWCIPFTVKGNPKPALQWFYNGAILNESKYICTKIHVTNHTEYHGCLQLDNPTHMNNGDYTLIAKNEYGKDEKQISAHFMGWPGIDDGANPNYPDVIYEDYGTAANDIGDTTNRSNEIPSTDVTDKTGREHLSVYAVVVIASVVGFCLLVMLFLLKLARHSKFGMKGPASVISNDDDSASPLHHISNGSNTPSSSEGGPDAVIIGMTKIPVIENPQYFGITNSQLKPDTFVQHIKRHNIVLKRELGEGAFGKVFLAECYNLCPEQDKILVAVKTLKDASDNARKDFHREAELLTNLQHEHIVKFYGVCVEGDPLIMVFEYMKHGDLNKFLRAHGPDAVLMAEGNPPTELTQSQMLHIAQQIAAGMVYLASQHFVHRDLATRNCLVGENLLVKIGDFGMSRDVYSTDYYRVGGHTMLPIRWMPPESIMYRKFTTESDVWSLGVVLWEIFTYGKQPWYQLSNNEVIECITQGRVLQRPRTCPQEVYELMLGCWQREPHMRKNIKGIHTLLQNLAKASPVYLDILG
# CDK1/CYCLINB, sequence (P06493 whole entry): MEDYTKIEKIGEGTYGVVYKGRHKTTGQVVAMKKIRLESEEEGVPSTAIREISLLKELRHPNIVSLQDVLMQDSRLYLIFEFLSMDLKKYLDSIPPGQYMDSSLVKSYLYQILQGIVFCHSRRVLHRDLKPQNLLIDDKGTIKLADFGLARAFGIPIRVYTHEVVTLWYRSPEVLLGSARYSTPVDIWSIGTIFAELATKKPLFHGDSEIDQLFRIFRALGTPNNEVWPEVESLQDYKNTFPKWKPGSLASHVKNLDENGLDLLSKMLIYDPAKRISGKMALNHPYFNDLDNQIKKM
# CDK1/CYCLINB, sequence (P14635 whole entry partner): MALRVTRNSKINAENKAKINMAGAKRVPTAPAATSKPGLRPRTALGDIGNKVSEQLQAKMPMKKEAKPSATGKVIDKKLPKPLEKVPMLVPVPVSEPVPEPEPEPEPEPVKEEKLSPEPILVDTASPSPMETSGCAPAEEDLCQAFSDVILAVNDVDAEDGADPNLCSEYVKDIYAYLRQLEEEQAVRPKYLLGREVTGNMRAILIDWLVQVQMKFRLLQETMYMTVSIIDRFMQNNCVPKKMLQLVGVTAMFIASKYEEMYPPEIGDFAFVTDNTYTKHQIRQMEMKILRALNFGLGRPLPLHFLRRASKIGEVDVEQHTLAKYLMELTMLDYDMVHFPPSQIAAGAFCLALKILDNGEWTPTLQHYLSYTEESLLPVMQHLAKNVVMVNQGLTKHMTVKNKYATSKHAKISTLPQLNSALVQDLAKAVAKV
# CAMKIIBETA, sequence (Q13554 whole entry): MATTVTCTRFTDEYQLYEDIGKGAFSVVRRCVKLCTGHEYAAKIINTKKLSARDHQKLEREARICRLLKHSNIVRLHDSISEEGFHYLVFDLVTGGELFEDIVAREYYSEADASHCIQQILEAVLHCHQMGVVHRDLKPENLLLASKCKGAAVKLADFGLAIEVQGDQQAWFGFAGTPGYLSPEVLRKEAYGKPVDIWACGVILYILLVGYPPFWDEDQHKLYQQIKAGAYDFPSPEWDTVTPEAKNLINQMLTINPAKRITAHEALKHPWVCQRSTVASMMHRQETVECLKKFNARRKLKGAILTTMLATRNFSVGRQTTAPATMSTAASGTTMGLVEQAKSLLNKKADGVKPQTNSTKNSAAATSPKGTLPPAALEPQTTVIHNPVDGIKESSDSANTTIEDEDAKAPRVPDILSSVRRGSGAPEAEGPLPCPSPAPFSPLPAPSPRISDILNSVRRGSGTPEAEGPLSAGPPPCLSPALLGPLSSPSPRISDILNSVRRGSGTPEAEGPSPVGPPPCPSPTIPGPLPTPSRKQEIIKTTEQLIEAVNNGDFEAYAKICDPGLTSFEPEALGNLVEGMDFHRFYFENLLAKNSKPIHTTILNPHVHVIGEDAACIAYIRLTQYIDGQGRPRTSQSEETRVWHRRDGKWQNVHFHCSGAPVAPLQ
# NEK11, sequence (Q8NG66 whole entry): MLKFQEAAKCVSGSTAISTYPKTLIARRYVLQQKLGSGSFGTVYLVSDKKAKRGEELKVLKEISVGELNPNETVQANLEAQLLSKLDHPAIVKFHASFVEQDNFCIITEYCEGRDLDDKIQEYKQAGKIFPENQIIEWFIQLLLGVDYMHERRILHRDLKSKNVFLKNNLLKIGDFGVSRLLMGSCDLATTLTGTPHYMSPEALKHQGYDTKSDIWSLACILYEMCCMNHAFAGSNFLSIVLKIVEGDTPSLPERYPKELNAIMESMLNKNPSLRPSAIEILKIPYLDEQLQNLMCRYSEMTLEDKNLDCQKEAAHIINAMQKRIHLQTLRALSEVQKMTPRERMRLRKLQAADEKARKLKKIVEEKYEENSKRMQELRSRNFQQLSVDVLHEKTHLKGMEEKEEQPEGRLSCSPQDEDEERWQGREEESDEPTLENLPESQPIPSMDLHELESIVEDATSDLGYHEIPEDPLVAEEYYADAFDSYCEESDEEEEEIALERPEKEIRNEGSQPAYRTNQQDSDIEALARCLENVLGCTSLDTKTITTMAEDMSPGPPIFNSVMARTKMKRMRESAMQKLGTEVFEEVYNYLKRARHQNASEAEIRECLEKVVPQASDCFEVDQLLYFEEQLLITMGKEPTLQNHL
# MKK6, sequence (P52564 whole entry): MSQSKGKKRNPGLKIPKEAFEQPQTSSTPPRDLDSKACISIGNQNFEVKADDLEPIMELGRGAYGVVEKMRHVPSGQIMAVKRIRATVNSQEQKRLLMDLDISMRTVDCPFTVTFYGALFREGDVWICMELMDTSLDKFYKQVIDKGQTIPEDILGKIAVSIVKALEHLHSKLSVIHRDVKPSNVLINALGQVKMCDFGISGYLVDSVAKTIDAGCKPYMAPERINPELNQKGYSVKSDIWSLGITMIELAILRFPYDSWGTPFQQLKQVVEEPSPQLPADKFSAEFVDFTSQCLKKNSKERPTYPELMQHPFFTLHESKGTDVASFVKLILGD
# FYN, sequence (P06241 whole entry): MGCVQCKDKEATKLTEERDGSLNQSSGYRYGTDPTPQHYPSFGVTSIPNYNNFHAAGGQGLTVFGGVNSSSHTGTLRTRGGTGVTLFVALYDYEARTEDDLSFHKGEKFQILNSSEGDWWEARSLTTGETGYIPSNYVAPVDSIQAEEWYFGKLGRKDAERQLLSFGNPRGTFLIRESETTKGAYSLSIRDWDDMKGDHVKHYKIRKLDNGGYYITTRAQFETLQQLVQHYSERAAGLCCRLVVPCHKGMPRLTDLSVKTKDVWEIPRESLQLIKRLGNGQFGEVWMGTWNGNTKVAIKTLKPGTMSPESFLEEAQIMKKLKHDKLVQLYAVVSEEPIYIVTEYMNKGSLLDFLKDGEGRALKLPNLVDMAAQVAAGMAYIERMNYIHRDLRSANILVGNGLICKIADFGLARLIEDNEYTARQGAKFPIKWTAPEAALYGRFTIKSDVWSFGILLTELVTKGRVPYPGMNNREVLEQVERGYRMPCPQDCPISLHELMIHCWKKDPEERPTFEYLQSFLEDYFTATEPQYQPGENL
# JAK3, sequence (P52333 whole entry): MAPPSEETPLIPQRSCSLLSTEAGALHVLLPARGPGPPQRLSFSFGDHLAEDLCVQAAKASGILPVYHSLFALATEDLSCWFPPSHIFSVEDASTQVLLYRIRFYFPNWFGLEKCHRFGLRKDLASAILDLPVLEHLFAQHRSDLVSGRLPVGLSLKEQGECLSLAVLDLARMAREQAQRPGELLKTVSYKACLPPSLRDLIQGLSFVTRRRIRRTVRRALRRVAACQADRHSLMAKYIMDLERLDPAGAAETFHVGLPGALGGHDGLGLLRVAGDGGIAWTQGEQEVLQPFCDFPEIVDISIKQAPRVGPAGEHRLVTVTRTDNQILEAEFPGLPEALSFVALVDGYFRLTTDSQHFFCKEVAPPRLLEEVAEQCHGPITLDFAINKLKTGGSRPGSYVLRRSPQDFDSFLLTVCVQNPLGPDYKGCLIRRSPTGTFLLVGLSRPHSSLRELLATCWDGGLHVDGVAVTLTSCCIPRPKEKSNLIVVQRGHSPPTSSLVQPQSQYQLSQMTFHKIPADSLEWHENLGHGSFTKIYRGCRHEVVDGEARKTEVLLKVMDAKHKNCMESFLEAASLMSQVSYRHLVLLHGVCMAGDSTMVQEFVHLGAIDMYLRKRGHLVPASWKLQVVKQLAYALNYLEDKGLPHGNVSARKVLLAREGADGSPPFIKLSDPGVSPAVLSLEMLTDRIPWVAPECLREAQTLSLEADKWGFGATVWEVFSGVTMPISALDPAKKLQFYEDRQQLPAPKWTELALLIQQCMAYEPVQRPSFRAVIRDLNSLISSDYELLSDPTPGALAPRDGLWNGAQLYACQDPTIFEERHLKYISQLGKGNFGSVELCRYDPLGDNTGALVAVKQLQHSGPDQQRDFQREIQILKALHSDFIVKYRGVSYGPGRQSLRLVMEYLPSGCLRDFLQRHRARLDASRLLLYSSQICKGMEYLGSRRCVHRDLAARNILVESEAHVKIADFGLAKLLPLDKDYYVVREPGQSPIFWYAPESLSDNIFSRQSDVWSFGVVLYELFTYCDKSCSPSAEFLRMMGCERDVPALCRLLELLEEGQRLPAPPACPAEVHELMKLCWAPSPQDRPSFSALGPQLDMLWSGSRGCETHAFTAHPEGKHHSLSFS
smiles,measurement,setting,value
COC1CN(C(=O)c2ccc3c(N)ncc(-c4ccc(-c5cnn(C)c5)cc4)c3n2)C1 [Compound 51],percentage effect,TSSK1,5%
same,percentage effect,CAMKI,-10%
same,percentage effect,NEK11,3%
same,percentage effect,NEK2,-5%
same,percentage effect,CKIT,1%
same,percentage effect,EPHA4,2%
same,percentage effect,[…],-3%
same,percentage effect,DAPK2,5%
same,percentage effect,RSE,17%
same,percentage effect,SNK,8%
same,percentage effect,ULK3,2%
same,percentage effect,MKK6,-4%
same,percentage effect,LCK,2%
same,percentage effect,LYN,-1%
same,percentage effect,FER,-18%
same,percentage effect,ARG,11%
same,percentage effect,PKCEPSILON,14%
same,percentage effect,EPHA8,-9%
same,percentage effect,CHK1,-8%
same,percentage effect,HIPK2,-8%
same,percentage effect,JAK2,-2%
same,percentage effect,AXL,27%
same,percentage effect,EPHA2,-12%
same,percentage effect,BLK,0%
same,percentage effect,AURKA,-3%
same,percentage effect,PRKAA1,-1%
same,percentage effect,CK1DELTA,1%
same,percentage effect,LOK,3%
same,percentage effect,PKCZETA,4%
same,percentage effect,MLK1,-3%
same,percentage effect,AURKB,0%
same,percentage effect,MER,-3%
same,percentage effect,FYN,1%
same,percentage effect,RSK4,9%
same,percentage effect,CDK1/CYCLINB,1%
same,inhibition at 1 µM,FLT4,54%
same,percentage effect,CAMKIIBETA,-10%
same,percentage effect,IR,3%
same,percentage effect,STK33,-15%
same,percentage effect,JAK3,2%
same,percentage effect,CRAF,-20%
same,percentage effect,ZAP-70,-3%
same,percentage effect,TRKB,-23%
same,percentage effect,RSK1,13%
same,percentage effect,HIPK1,5%
COC1CN(C(=O)c2ccc3c(N)ncc(-c4ccc(-c5cnn(C)c5)cc4)c3c2)C1 [Compound 59],percentage effect,TSSK1,-14%
same,percentage effect,CAMKI,-5%
same,percentage effect,NEK11,-22%
same,percentage effect,NEK2,-9%
same,percentage effect,CKIT,-3%
same,percentage effect,EPHA4,1%
same,percentage effect,[…],11%
same,percentage effect,DAPK2,12%
same,percentage effect,RSE,-6%
same,percentage effect,SNK,3%
same,percentage effect,ULK3,8%
same,percentage effect,MKK6,-14%
same,percentage effect,LCK,-18%
same,percentage effect,LYN,0%
same,percentage effect,FER,3%
same,percentage effect,ARG,-7%
same,percentage effect,PKCEPSILON,8%
same,percentage effect,EPHA8,-12%
same,percentage effect,CHK1,-9%
same,percentage effect,HIPK2,16%
same,percentage effect,JAK2,3%
same,percentage effect,AXL,-12%
same,percentage effect,EPHA2,7%
same,percentage effect,BLK,-26%
same,percentage effect,AURKA,-21%
same,percentage effect,PRKAA1,-3%
same,percentage effect,CK1DELTA,-10%
same,percentage effect,LOK,1%
same,percentage effect,PKCZETA,-13%
same,percentage effect,MLK1,-30%
same,percentage effect,AURKB,14%
same,percentage effect,MER,-4%
same,percentage effect,FYN,8%
same,percentage effect,RSK4,13%
same,percentage effect,CDK1/CYCLINB,-5%
same,inhibition at 1 µM,FLT4,62%
same,percentage effect,CAMKIIBETA,5%
same,percentage effect,IR,-15%
same,percentage effect,STK33,1%
same,percentage effect,JAK3,14%
same,percentage effect,CRAF,0%
same,percentage effect,ZAP-70,-6%
same,percentage effect,TRKB,0%
same,percentage effect,RSK1,-14%
same,percentage effect,HIPK1,0%
